# Measured values published in US20100292316A1, “IMPROVED THERAPEUTIC METHODS AND COMPOSITIONS COMPRISING CHROMAN RING COMPOUNDS” (Research Development Foundation, priority 2007, published 2010).
# Tested on: Arg
# Experiment: Arg mRNA (RT-PCR) and protein (Western blot) levels
# Type: cell-based, human
# Conditions: 40 μM α-TEA
# Protocol: Arg (ABL2) expression data obtained from gene array analysis was further confirmed by RT-PCR and Western blot analyses. […] Unlike MDA-MB-435 cells, the MCF-7 cell line is an estrogen-receptor positive/estrogen responsive human breast cancer line (Klotz et al., 1995). However, both cell lines were induced to undergo apoptosis by α-TEA as assessed by PARP cleavage (FIG. 1B).
# Whole-cell protein extracts were prepared as described previously (Yu et al., 1999), and 50 μg of protein was loaded per lane, separated using SDS-PAGE on a 10-15% gel under reducing conditions, and electroblotted onto a nitrocellulose membrane ([…] Optitran BA-S-supported nitrocellulose; Schleicher and Schuell, Keene, N.H.). Equal loading was verified using GAPDH antibody. Primary rabbit antibodies with specificity for PARP and primary goat antibody with specificity for Arg were purchased from Santa Cruz Biotechnology (Santa Cruz, Calif.). Horseradish peroxidase conjugated goat anti-rabbit or horseradish goat anti-mouse secondary antibody was purchased from Jackson Immunoresearch Laboratory (West Grove, Pa.). Horseradish peroxidase-conjugated donkey anti-goat serum was purchased from Santa Cruz Biotechnology. Immune complexes were visualized using enhanced chemiluminescence detection (Pierce Chemical Co., Rockford, Ill.). Fold differences in level of chemiluminescence were determined by densitometric analyses.
# Total RNA was isolated from cells using RNeasy Protect Mini kit (Qiagen, Valencia, Calif.) according to manufacturer's instruction. Reverse transcription was performed as described above except using 15 μg of total RNA as template. […]
# The double stranded small interfering RNA oligonucleotides specific for Arg and negative control siRNA (with no known homology to mammalian genes) were purchased from Ambion (siRNA ID #1478, Austin, Tex.). […] The cells were collected, lysed and the lysates were analyzed by immunoblotting (Western blot).
structure (smiles),measurement,setting,value
Cc1c(C)c2c(c(C)c1OCC(=O)O)CC[C@@](C)(CCC[C@H](C)CCC[C@H](C)CCCC(C)C)O2 [α-TEA],up-regulation of Arg mRNA and protein levels,MCF-7 cells,not in MCF-7 cells
same,"peak Arg mRNA levels, fold of the vehicle (VEH) control","MDA-MB-435 cells, 24 h, RT-PCR densitometry",1.5 fold
same,"peak Arg protein levels, fold of the VEH control","MDA-MB-435 cells, 24 h, Western densitometry",2.9 fold
